Reference: article PMC7114147 (Antiviral Research, 2013)
Where “and” joins values, the source holds several entries; their conditions need not be identical. Identical values can stand only once. Like-named read-outs stand apart in the source and are kept apart here.

Experiments:
endosomal pH = format: cell-based
A/H3N2 (A/HK/7/87) = experiment: microbe, parasite or virus in culture; format: cell-based
A/Ned/378/05 (A/H1N1) = experiment: microbe, parasite or virus in culture; format: cell-based; conditions: Influenza A virus, H1N1, MDCK, read-out: Antiviral activity (EC50) A/Ned/378/05
A/FM/1/47 (A/H1N1) = experiment: microbe, parasite or virus in culture; format: cell-based; conditions: Influenza A virus, H1N1, MDCK, read-out: Antiviral activity (EC50) A/FM/1/47
A/Ishikawa/7/82 (A/H3N2) = experiment: microbe, parasite or virus in culture; format: cell-based; conditions: Influenza A virus, read-out: Antiviral activity (EC50) A/Ishikawa/7/82
MDCK cells = conditions: dog
A/H1N1 (A/PR/8/34) = experiment: microbe, parasite or virus in culture; format: cell-based, influenza A virus; conditions: read-out: Antiviral EC50 A/H1N1 (A/PR/8/34)
[1] = tested on: influenza virus A/PR/8/34; format: cell-based
A/M2 wt channel = A/M2 wt channel (Influenza A virus, UniProt P0DOF5); experiment: biochemical; conditions: pH 5.5, read-out: Activity against A/M2 wt channel, Inhibition at 100 μM (%)
in vitro = conditions: dog, Cytotoxicity CC50
A/Victoria/3/75 (A/H3N2) = experiment: microbe, parasite or virus in culture; format: cell-based; conditions: Influenza A virus, H3N2, read-out: EC50 A/Victoria/3/75
[2] = Influenza A virus, H3N2, MDCK, read-out: Antiviral activity (EC50) A/HK/7/87
[3] = Influenza A virus, H1N1|PR/8, MDCK
[4] = Influenza A virus, H3N2, MDCK, read-out: Antiviral EC50 A/H3N2 (A/HK/7/87)

Chain of A/M2 wt channel (P0DOF5 whole entry, looked up): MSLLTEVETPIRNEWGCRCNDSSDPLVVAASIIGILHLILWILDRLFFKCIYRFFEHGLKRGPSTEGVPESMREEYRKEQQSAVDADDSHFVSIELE

Row | Compound | EC50 (A/H3N2 (A/HK/7/87); [2]) [µM] | EC50 (A/Ned/378/05 (A/H1N1)) [µM] | EC50 (A/FM/1/47 (A/H1N1)) [µM] | EC50 (A/Ishikawa/7/82 (A/H3N2)) [µM] | Cytotoxicity (MCC) (MDCK cells) [µM] | EC50 (A/H1N1 (A/PR/8/34); [3]) [µM] | EC50 (A/H3N2 (A/HK/7/87); [4]) [µM] | EC99 (2-log10 reduction in virus yield) [1] | also measured
1 | CCN(CC)CCCC(C)Nc1ccnc2cc(Cl)ccc12 (centres unmarked) [chloroquine] |  |  |  |  |  |  |  |  | Effect on acridine orange lysosomal red fluorescence (endosomal pH): a decrease in lysosomal pH and a shift to yellow fluorescence
2 | CC(=O)N[C@H]1[C@H]([C@H](O)[C@H](O)CO)OC(C(=O)O)=C[C@@H]1N=C(N)N [Zanamivir] | 1.2 ± 0.9 | 1.7 ± 0.5 | 5 ± 1.6 | 8.7 ± 3.8 | >100 |  |  |  | 
3 | NC12CC3CC(CC(C3)C1)C2 [Amantadine, amantadine] | 3.4 ± 1.7 | 2 | 5.1 ± 2.4 | 11 ± 8 | 500 | 53 | 3.4 | 179 μM and 179 ± 53 μM | Effect on acridine orange staining pattern (endosomal pH; 500 μM): neither of the polycyclic amines tested
4 | NC(=O)c1ncn([C@@H]2O[C@H](CO)[C@@H](O)[C@H]2O)n1 [Ribavirin] | 8.6 ± 0.4 | 7.6 ± 1 | 10 ± 1 | 8.8 ± 0.3 | >100 |  |  | 11 ± 1 μM | 
5 | CCC(CC)O[C@@H]1C=C(C(=O)O)C[C@H](N)[C@H]1NC(C)=O [Oseltamivir carboxylate] | 29 ± 5 | 1.5 ± 0.8 | 16 ± 2 | 3 ± 1 | >100 |  |  |  | 
6 | CC(N)C12CC3CC(CC(C3)C1)C2 (centres unmarked) [Rimantadine, rimantadine] | 0.17 ± 0.08 | 0.5 ± 0.22 | 1.9 ± 1.1 | 0.45 ± 0.15 | >100 | 4.6 | 0.17 | 48 μM and 48 ± 5 μM | inhibition at 100 µM (A/M2 wt channel): 91.4 ± 0.8%; Cytotoxicity MCC (minimum cytotoxic concentration) (MDCK cells): 500 µM; CC50 (in vitro): 230 µM
7 | CO/C1=C\C(C)=C\[C@@H](C)[C@@H](O)[C@@H](C)C/C(C)=C/C=C/[C@H](OC)[C@@H]([C@@H](C)[C@@H](O)[C@H](C)[C@@]2(O)C[C@@H](O)[C@H](C)[C@@H](C(C)C)O2)OC1=O [bafilomycin A1] |  |  |  |  |  |  |  |  | Effect on acridine orange lysosomal red fluorescence (endosomal pH): completely inhibited
8 | C1=CC2C3C4C5C=CC4C24CNCC54C13 [Compound 3, 3-azahexacyclo[7.6.0.0^1,5.0^5,12.0^6,10.0^11,15]pentadeca-7,13-diene] |  |  |  |  |  | 14 | 16 |  | EC50 (A/H1N1 (A/PR/8/34)): 16 µM; EC50 (A/H3N2 (A/HK/7/87); read-out: Antiviral EC50 A/H3N2 (A/HK/7/87)): 14 µM; EC50 (A/Victoria/3/75 (A/H3N2)): > 100 µM; CC50 (in vitro): > 100 µM
